Broadly, the IC50 is the concentration that gives 50% inhibition.

The first assay addresses T1, hROMK (hKir1.1) (Homo sapiens, UniProt P48048).
T1 construct: expressed in transfected cells
T1 sequence (P48048 1-391): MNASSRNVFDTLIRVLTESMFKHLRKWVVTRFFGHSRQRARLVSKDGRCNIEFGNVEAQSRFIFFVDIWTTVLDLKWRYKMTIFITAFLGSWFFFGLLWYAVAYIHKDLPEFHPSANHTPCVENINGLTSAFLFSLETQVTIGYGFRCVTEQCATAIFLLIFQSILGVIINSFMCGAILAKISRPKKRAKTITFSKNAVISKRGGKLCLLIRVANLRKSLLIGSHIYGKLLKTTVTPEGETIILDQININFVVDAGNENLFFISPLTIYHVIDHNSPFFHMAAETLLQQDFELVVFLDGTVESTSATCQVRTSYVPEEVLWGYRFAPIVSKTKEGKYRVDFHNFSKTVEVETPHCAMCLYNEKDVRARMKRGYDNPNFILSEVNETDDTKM
Briefly: Thallium Flux Assay. It is filed as cell-based. Conditions: HEK293 cells stably expressing hROMK (hKir1.1), FLIPR-Tetra; read-out: Thallium Flux IC50. As for the experimental part:
Cell Culture Conditions- HEK293 cells stably expressing hROMK (hKir1.1) were grown at 37°C in a 10%CO2 humidified incubator in complete growth media: Dulbecco's Modified Eagle Medium supplemented with non-essential amino acids, Penicillin/Streptomycin/Glutamine, G418 and FBS. At >80% confluency, aspirate the media from the flask and rinse with 10 mL Calcium/Magnesium-free PBS. […] To dislodge the cell, gently bang the side of the flask with your hand. Triturate the cells completely and then transfer the cells to 25 mL complete media. Centrifuge at 1,500 rpm for 6 min followed by resuspension in complete growth media and determine cell concentration. […] Under ideal growth conditions and appropriate tissue culture practices, this cell line is stable for 40-45 passages.
• FluxOR™ Reagent (Component A) • FluxOR™ Assay Buffer (Component B) - 10X Concentrate • PowerLoad™ Concentrate (Component C) - 100X Concentrate • Probenecid (Component D) - Lyophilized sample is kept at -20°C. Water soluble, 100X after solubilization in 1 mL water. […] Store at 4°C. • Thallium sulfate (Tl2SO4) Concentrate (Component G) - 50 mM in water. Store at 4°C • DMSO (dimethyl sulfoxide, Component H) - 1 mL (100%)
• 1000X FluxOR™ Reagent: Reconstitute a vial of component A in 100 µl DMSO; Mix well; Store 10 µl aliquots at -20°C • 1X FluxOR™ Assay Buffer: Dilute Component B 10-fold with water; Adjust pH to 7.4 with Hepes/NaOH; Filter and store at 4°C • Probenecid/Assay Buffer: 100 mL of 1X FluxOR™ Assay Buffer; 1 mL of reconstituted component D; Store at 4°C • Loading Buffer (per microplate): 10 µl 1000X FluxOR™ Reagent; 100 µl component C; 10 mL Probenecid/Assay Buffer • Compound Buffer (per microplate): 20 mL Probenecid/Assay Buffer; 0.3 mM ouabain (10 mM ouabain in water can be stored in amber bottle/aluminum foil at room temperature); Test compound • 1X FluxOR™Chloride-Free Buffer: Prepare 1X working solution in water. Can be stored at room temperature • Stimulant Buffer (prepared at 5X final concentration in 1X FluxOR™Chloride-Free Buffer): 7.5 mM Thallium sulfate and 0.75 mM Potassium sulfate (to give a final assay concentration of 3 mM Thallium/ 0.3 mM Potassium). Store at 4°C when not in use. If kept sterile, this solution is good for months.
Assay protocol- The ROMK channel functional thallium flux assay is performed in 384 wells, using the FLIPR-Tetra instrument. HEK-hKir1.1 cells are seeded in Poly-D-Lysine microplates and kept in a 37°C-10%CO2 incubator overnight. On the day of the experiment, the growth media is replaced with the FluxOR™ reagent loading buffer and incubated, protected from light, at ambient temperature (23-25°C) for 90 min. The loading buffer is replaced with assay buffer ± test compound followed by 30 min incubation at ambient temperature, where the Thallium/Potassium stimulant is added to the microplate.
• 1. Seed HEK-hKir1.1 cells (50 µl at 20,000 cells/well) in 384-well PDL coated Microplates • 2. Allow cells to adhere overnight in humidified 37°C/10%CO2 incubator • 3. Completely remove cell growth media from microplate and replace with 25 µl loading buffer • 4. Incubate Microplate at room temperature, protected form light, for 90 min • 5. Remove loading buffer and replace with 25 µl 1x Assay Buffer ± test compound. • 6. Incubate microplate at room temperature, protected form light, for 30 min • 7. […] Excitation = 400 nm, Emission = 460 & 580 nm. Collect data for ∼ 10 min.
Data Calculation- The fluorescence intensity of wells containing 3 µM of a standard control ROMK inhibitor of the present invention is used to define the ROMK-sensitive component of thallium flux. Fluorescence in the presence of test compounds is normalized to control values to provide % fluorescence change.
Regarding `N#Cc1c(F)ccc([C@@H]2CN3CCN(C(=O)Cc4ccc(-n5cnnn5)cn4)C[C@H]3CO2)c1F` [Example 54, 2,6-difluoro-3-[(3R,9aS)-8-{[5-(1H-tetrazol-1-yl)pyridin-2-yl]acetyl}octahydropyrazino[2,1-c][1,4]oxazin-3-yl]benzonitrile], the 50% inhibitory concentration (IC50) turned out to be 100 nM.

Consider `Cc1cc(-n2cnnn2)ncc1CC(=O)N1CCN2C[C@@H](c3ccc4c(c3)CCOC4=O)OC[C@@H]2C1` [Example 44, 6-[(3R,9aS)-8-{[4-methyl-6-(1H-tetrazol-1-yl)pyridin-3-yl]acetyl}octahydropyrazino[2,1-c][1,4]oxazin-3-yl]-3,4-dihydro-1H-isochromen-1-one], for which the IC50 came out at 170 nM. Consider `Cc1c([C@@H]2CN3CCN(C(=O)Cc4ccc(-n5cnnn5)nc4)C[C@H]3CO2)csc1C#N` [Example 68, 3-methyl-4-[(3R,9aS)-8-{[6-(1H-tetrazol-1-yl)pyridin-3-yl]acetyl}octahydropyrazino[2,1-c][1,4]oxazin-3-yl]thiophene-2-carbonitrile], for which the IC50 worked out at 40 nM. As to `Cc1c([C@@H]2CN3CCN(C(=O)Cc4ccc(-n5cnnn5)nc4)C[C@H]3CO2)ccc(Cl)c1C#N` [Example 65], the IC50 is 150 nM. Consider `Cc1c([C@@H]2CN3CCN(C(=O)Nc4ccc(-n5cnnn5)nc4)C[C@@H]3CO2)ccc(F)c1C#N` [Example 199, (3R,9aR)-3-(3-cyano-4-fluoro-2-methylphenyl)-N-[6-(1H-tetrazol-1-yl)pyridin-3-yl]hexahydropyrazino[2,1-c][1,4]oxazine-8(1H)-carboxamide], for which the IC50 stood at 140 nM. On the same count and under the same terms, then `Cc1c([C@H]2CN3CCN(C(=O)Cc4cnc(-n5cnnn5)c(F)c4)C[C@@H]3CO2)ccc(F)c1C#N` [Example 147, 6-fluoro-3-[(3S,9aR)-8-{[5-fluoro-6-(1H-tetrazol-1-yl)pyridin-3-yl]acetyl}octahydropyrazino[2,1-c][1,4]oxazin-3-yl]-2-methylbenzonitrile], with 140 nM; and `Cc1c([C@H]2CN3CCN(C(=O)Cc4ccc(-n5cnnn5)cn4)C[C@H]3CN2)ccc(F)c1C#N` [Example 191, 6-fluoro-2-methyl-3-[(3S,9aR)-8-{[5-(1H-tetrazol-1-yl)pyridin-2-yl]acetyl}octahydro-2H-pyrazino[1,2-a]pyrazin-3-yl]benzonitrile], with 120 nM.

For the compound `Cc1nc(-n2cnnn2)ncc1CC(=O)N1CCN2C[C@@H](c3ccc(F)c(C#N)c3Cl)OC[C@H]2C1` [Example 138, 2-chloro-6-fluoro-3-[(3R,9aR)-8-{[4-methyl-2-(1H-tetrazol-1-vl)pvrimidin-5-yl]acetyl}octahydropyrazino[2,1-c][1,4]oxazin-3-yl]benzonitrile], the IC50 worked out at 140 nM. Take `N#Cc1c(F)ccc([C@H]2CN3CCN(C(=O)Cc4ccc(-n5cnnn5)nc4)C[C@H]3CO2)c1F` [Example 12, 2,6-difluoro-3-[(3S,9aS)-8-{[6-(1H-tetrazol-1-yl)pyridin-3-yl]acetyl}octahydropyrazino[2,1-c][1,4]oxazin-3-yl]benzonitrile]: the IC50 turned out to be 120 nM. Same read-out and setting: the figure for `Cc1c([C@@H]2CN3CCN(C(=O)Nc4ccc(-n5cnnn5)cn4)C[C@H]3CO2)ccc(F)c1C#N` [Example 201, (3R,9aS)-3-(3-cyano-4-fluoro-2-methylphenyl)-N-[5-(1H-tetrazol-1-yl)pyridin-2-yl]hexahydropyrazino[2,1-c][1,4]oxazine-8(1H)-carboxamide] is 320 nM.

Staying with this assay, now noted: Thallium Flux IC50.
`Cc1c([C@H]2CN3CCN(C(=O)Cc4ncc(-n5cnnn5)cc4Cl)C[C@H]3CO2)ccc(F)c1C#N` [Example 153, 3-[(3S,9aS)-8-{[3-chloro-5-(1H-tetrazol-1-yl)pyridin-2-yl]acetyl}octahydropyrazino[2,1-c][1,4]oxazin-3-yl]-6-fluoro-2-methylbenzonitrile] registered an IC50 of 170 nM.

Regarding `Cc1c(C2CN3CCN(C(=O)Cc4ccc(-n5cnnn5)nc4)CC3CCO2)ccc2c1COC2=O` (single isomer, unassigned) [Example 164, 4-methyl-5-(2-{(6-(1H-tetrazol-1-yl)pyridin-3-yl]acetyl}octahydro-2H-pyrazino[1,2-d][1,4]oxazepin-7-yl)-2-benzofuran-1(3H)-one], the IC50 came out at 650 nM. Same read-out and setting: then `N#Cc1cc([C@@H]2CN3CCN(C(=O)Cc4ccc(-n5cnnn5)nc4)C[C@H]3CO2)c(F)cc1F` [Example 81, 2,4-difluoro-5-[(3R,9aS)-8-{[6-(1H-tetrazol-1-yl)pyridin-3-yl]acetyl}octahydropyrazino[2,1-c][1,4]oxazin-3-yl]benzonitrile], with 160 nM; and `Cc1c([C@H]2CN3CCN(C(=O)Cc4ccc(-n5cnnn5)nc4)C[C@H]3CN2)ccc(F)c1C#N` [Example 192, 6-fluoro-2-methyl-3-[(3S,9aR)-8-{[6-(1H-tetrazol-1-yl)pyridin-3-yl]acetyl}octahydro-2H-pyrazino[1,2-a]pyrazin-3-yl]benzonitrile], with 70 nM; and `Cc1cc(-n2cnnn2)ncc1CC(=O)N1CCN2C[C@H](c3ccc4c(c3C)COC4=O)OC[C@@H]2C1` [Example 42, 4-methyl-5-[(3S,9aS)-8-{[4-methyl-6-(1H-tetrazol-1-yl)pyridin-3-yl]acety}octahydropyrazino[2,1-c][1,4]oxazin-3-yl]-2-benzofuran-1(3H)-one], with 210 nM. On the same count and under the same terms, then `Cc1c([C@H]2CN3CCN(C(=O)Cc4cnc(-n5cnnn5)nc4)C[C@H]3CCO2)ccc(F)c1C#N` (single isomer, unassigned) [Example 172], with 220 nM. With `N#Cc1c(F)ccc([C@H]2CN3CCN(C(=O)Cc4ccc(-n5cnnn5)nc4)C[C@@H]3CO2)c1F` [Example 87, 2,6-difluoro-3-[(3S,9aR)-8-{[6-(1H-tetrazol-1-yl)pyridin-3-yl]acetyl}octahydropyrazino[2,1-c][1,4]oxazin-3-yl]benzonitrile], the IC50 turned out to be 220 nM. The compound `Cc1c([C@@H]2CN3CCN(C(=O)Cc4ccc(-n5cnnn5)nc4)C[C@H]3CO2)ccc(F)c1C#N` [Example 5, 6-fluoro-2-methyl-3-[(3R,9aS)-8-{[6-(1H-tetrazol-1-yl)pyridin-3-yl]acetyl}octahydropyrazino[2,1-c][1,4]oxazin-3-yl]benzonitrile] displayed an IC50 of 50 nM.

For `O=C(Cc1ccc(-n2cnnn2)nc1)N1CCN2C[C@H](c3ccc4nonc4c3)OC[C@@H]2C1` [Example 180, (3S,9aS)-3-(2,1,3-benzoxadiazol-5-yl)-8-{[6-(1H-tetrazol-1-vl)pvridin-3-yl]acetyl}octahydropyrazino[2,1-c][1,4]oxazine], the midpoint of inhibition, the IC50, lay at 590 nM.

Compound `Cc1c([C@@H]2CN3CCN(C(=O)Cc4ccc(-n5cnnn5)nn4)C[C@@H]3CO2)ccc(F)c1C#N` [Example 156, 6-fluoro-2-methyl-3-[(3R,9aR)-8-{[6-(1H-tetrazol-1-yl)pyridazin-3-yl]acetyl}octahydropyrazino [2,1-c][1,4]oxazin-3-yl]benzonitrile] registered an IC50 of 210 nM.

The values are drawn from EP2790511B1 (Merck Sharp & Dohme Corp., priority 2011, dated 2013).
